Reference: ChEMBL document CHEMBL1201862, “PubChem BioAssay data set” (2004)
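Briefly, cells in 96-well plates were exposed to five compound concentrations for 48 h, and endpoints were estimated by linear interpolation. GI50 is the concentration that inhibits growth by half.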 Active and inactive are the calls of the source. No stated cut-off is given here; in the data, active = GI50 up to about 1.1 µM and inactive = higher.

Legend:
Assay in all cases: growth of human tumour cells (NCI), 48 h
K562 = system: K562
SK-OV-3 = system: SK-OV-3
ACHN = system: ACHN
BT-549 = system: BT-549
MCF7 = system: MCF7
SNB-19 = system: SNB-19
HT-29 = system: HT-29
HOP-62 = system: HOP-62
786-0 = system: 786-0
OVCAR-5 = system: OVCAR-5
NCI-H460 = system: NCI-H460
OVCAR-4 = system: OVCAR-4
SK-MEL-2 = system: SK-MEL-2
MDA-MB-435 = system: MDA-MB-435
NCI/ADR-RES = system: NCI/ADR-RES
SF-295 = system: SF-295
KM12 = system: KM12
MDA-N = system: MDA-N
SK-MEL-28 = system: SK-MEL-28
OVCAR-3 = system: OVCAR-3

SMILES	GI50 (K562)	GI50 (SK-OV-3)	GI50 (ACHN)	GI50 (BT-549)	GI50 (MCF7)	GI50 (SNB-19)	GI50 (HT-29)	GI50 (HOP-62)	GI50 (786-0)	GI50 (OVCAR-5)	GI50 (NCI-H460)	GI50 (OVCAR-4)	GI50 (SK-MEL-2)	GI50 (MDA-MB-435)	GI50 (NCI/ADR-RES)	GI50 (SF-295)	GI50 (KM12)	GI50 (MDA-N)	GI50 (SK-MEL-28)	GI50 (OVCAR-3)
O=c1cc(-c2ccccc2)[nH]c2ccc(N3CCCCC3)cc12	< 0.0129 µM (active)	0.0368 µM (active)	0.048 µM (active)	40.9 µM (inactive)	0.0428 µM (active)	0.0347 µM (active)	0.0566 µM (active)	0.0305 µM (active)	0.0364 µM (active)	4.35 µM (inactive)	0.0306 µM (active)	> 100 µM (inactive)	0.0476 µM (active)	< 0.01 µM (active)	0.0204 µM (active)	< 0.0117 µM (active)	0.0142 µM (active)	< 0.01 µM (active)	0.0267 µM (active)	0.0166 µM (active)
Cc1ccc(C(=O)/C=C2/Nc3ccc([N+](=O)[O-])cc3N/C2=C/C(=O)c2ccc(C)cc2)cc1	85.5 µM (inactive)	41.1 µM (inactive)	37.5 µM (inactive)	> 100 µM (inactive)	84.1 µM (inactive)	43.8 µM (inactive)	> 100 µM (inactive)	15.3 µM (inactive)	60.7 µM (inactive)	> 100 µM (inactive)	> 100 µM (inactive)	61.4 µM (inactive)	66.5 µM (inactive)	> 100 µM (inactive)	47.6 µM (inactive)	41.3 µM (inactive)	> 100 µM (inactive)	> 100 µM (inactive)	> 100 µM (inactive)	> 100 µM (inactive)
Cc1ccc(S(=O)(=O)n2cc(C#N)c(C#N)c2)cc1	33.3 µM (inactive)	19.1 µM (inactive)	19.3 µM (inactive)	20.6 µM (inactive)	22.3 µM (inactive)	> 10 µM (inactive)	23.9 µM (inactive)	24.5 µM (inactive)	36.2 µM (inactive)	27.9 µM (inactive)	36.5 µM (inactive)	74 µM (inactive)	24.3 µM (inactive)	19.8 µM (inactive)	31.8 µM (inactive)	23 µM (inactive)	31 µM (inactive)	27.1 µM (inactive)	15.5 µM (inactive)	22.5 µM (inactive)
O=C(Nc1ccccc1)c1cc2c(cc1Cl)Sc1nccn1S2(=O)=O	28.2 µM (inactive)	76.4 µM (inactive)	41.3 µM (inactive)	19.7 µM (inactive)	12.6 µM (inactive)	> 100 µM (inactive)	21.9 µM (inactive)	16 µM (inactive)	21.2 µM (inactive)	27.2 µM (inactive)	16.6 µM (inactive)	31.8 µM (inactive)	28.6 µM (inactive)	14.8 µM (inactive)	41.8 µM (inactive)	41.5 µM (inactive)	18.6 µM (inactive)	23.5 µM (inactive)	18 µM (inactive)	21.4 µM (inactive)
OCC(CCc1c[nH]c2ccccc12)c1c[nH]c2ccccc12 (stereo not given)	18.2 µM (inactive)	30.5 µM (inactive)	17.9 µM (inactive)	16.5 µM (inactive)	15.5 µM (inactive)	16.7 µM (inactive)	17 µM (inactive)	20.5 µM (inactive)	16 µM (inactive)	17.4 µM (inactive)	14.6 µM (inactive)	17.9 µM (inactive)	16.5 µM (inactive)	18.4 µM (inactive)	18 µM (inactive)	16.7 µM (inactive)	15.9 µM (inactive)	16.7 µM (inactive)	20.5 µM (inactive)	27.3 µM (inactive)
O=C(CCc1ccc(O)cc1)NCCCNC(=O)CCc1ccc(O)cc1	> 100 µM (inactive)	> 100 µM (inactive)	> 100 µM (inactive)	> 100 µM (inactive)	> 100 µM (inactive)	> 100 µM (inactive)	> 100 µM (inactive)	> 100 µM (inactive)	> 100 µM (inactive)	> 100 µM (inactive)	> 100 µM (inactive)	> 100 µM (inactive)	> 100 µM (inactive)	> 100 µM (inactive)	> 100 µM (inactive)	> 100 µM (inactive)	> 100 µM (inactive)	> 100 µM (inactive)	> 100 µM (inactive)	> 100 µM (inactive)
CC1=NC(C)(COC(=O)C2(C)NC(C)(CO)CO2)COC1=O (stereo not given)	> 100 µM (inactive)	> 100 µM (inactive)	> 100 µM (inactive)	> 100 µM (inactive)	> 100 µM (inactive)	> 100 µM (inactive)	> 100 µM (inactive)	> 100 µM (inactive)	> 100 µM (inactive)	> 100 µM (inactive)	> 100 µM (inactive)	> 100 µM (inactive)	> 100 µM (inactive)	> 100 µM (inactive)	> 100 µM (inactive)	> 100 µM (inactive)	> 100 µM (inactive)	> 100 µM (inactive)	> 100 µM (inactive)	> 100 µM (inactive)
COc1cc(C(O)c2ccc3c(c2)OCO3)cc(OC)c1OC (stereo not given)	> 100 µM (inactive)	> 100 µM (inactive)	> 100 µM (inactive)	> 100 µM (inactive)	> 100 µM (inactive)	> 100 µM (inactive)	> 100 µM (inactive)	> 100 µM (inactive)	> 100 µM (inactive)	> 100 µM (inactive)	> 100 µM (inactive)	> 100 µM (inactive)	> 100 µM (inactive)	70 µM (inactive)	> 100 µM (inactive)	> 100 µM (inactive)	> 100 µM (inactive)	> 100 µM (inactive)	> 100 µM (inactive)	> 100 µM (inactive)
C=CC(O)(CBr)CCC(Br)C(C)(C)Cl (stereo not given)	> 10 µM (inactive)	> 10 µM (inactive)	> 10 µM (inactive)	> 10 µM (inactive)	> 10 µM (inactive)	> 10 µM (inactive)	> 10 µM (inactive)	> 10 µM (inactive)	> 10 µM (inactive)	> 10 µM (inactive)	> 10 µM (inactive)	> 10 µM (inactive)	> 10 µM (inactive)	> 10 µM (inactive)	> 10 µM (inactive)	> 10 µM (inactive)	> 10 µM (inactive)	> 10 µM (inactive)	> 10 µM (inactive)	> 10 µM (inactive)
CN(C)CC1CCC/C(=C\c2ccc(OC(=O)/C=C/c3ccc(Cl)c(Cl)c3)cc2)C1=O (stereo not given)	1.94 µM (inactive)	37.3 µM (inactive)	1.82 µM (inactive)	3.42 µM (inactive)	0.857 µM (active)	10.5 µM (inactive)	2.11 µM (inactive)	2.75 µM (inactive)	1.83 µM (inactive)	20.5 µM (inactive)	3.86 µM (inactive)	22.9 µM (inactive)	15.9 µM (inactive)	6.89 µM (inactive)	2.92 µM (inactive)	7.11 µM (inactive)	1.61 µM (inactive)	3.37 µM (inactive)	7.8 µM (inactive)	3.48 µM (inactive)
COc1ccc2[nH]c(C(=O)N3CC(CCl)c4ccc([N+](=O)[O-])cc43)cc2c1 (stereo not given)	> 100 µM (inactive)	> 100 µM (inactive)	> 100 µM (inactive)	> 100 µM (inactive)	6.41 µM (inactive)	> 100 µM (inactive)	> 95.7 µM (inactive)	> 100 µM (inactive)	> 100 µM (inactive)	> 100 µM (inactive)	> 100 µM (inactive)	> 64.4 µM (inactive)	> 100 µM (inactive)	> 100 µM (inactive)	> 100 µM (inactive)	> 100 µM (inactive)	> 31.8 µM (inactive)	> 100 µM (inactive)	> 100 µM (inactive)	> 100 µM (inactive)
COc1cc2c(cc1Cc1c(F)cccc1Cl)nc(-c1c(F)cccc1Cl)n2Cc1c(F)cccc1Cl	45.3 µM (inactive)	20.8 µM (inactive)	31.8 µM (inactive)	28.8 µM (inactive)	35.2 µM (inactive)	33.2 µM (inactive)	16.5 µM (inactive)	36.1 µM (inactive)	24.4 µM (inactive)	48.8 µM (inactive)	22.5 µM (inactive)	18.6 µM (inactive)	12.6 µM (inactive)	33.1 µM (inactive)	38.7 µM (inactive)	14 µM (inactive)	28.4 µM (inactive)	20.6 µM (inactive)	65.6 µM (inactive)	11.6 µM (inactive)
COc1ccc(/N=N/c2c(C)c(C#N)c(=S)n(C3OC(CO)C(O)C(O)C3O)c2-c2ccccc2)cc1 (stereo not given)	19.3 µM (inactive)	27.2 µM (inactive)	26 µM (inactive)	38 µM (inactive)	38.3 µM (inactive)	41.3 µM (inactive)	32.5 µM (inactive)	37.9 µM (inactive)	32 µM (inactive)	36.9 µM (inactive)	31.3 µM (inactive)	31.9 µM (inactive)	33 µM (inactive)	24.5 µM (inactive)	93.1 µM (inactive)	30.8 µM (inactive)	43.5 µM (inactive)	37.4 µM (inactive)	25.3 µM (inactive)	24.7 µM (inactive)
COc1cc(S(=O)(=O)Nc2ccc(-c3csc(N4C(=O)CSC4c4ccccc4O)n3)cc2)ccc1Cl (stereo not given)	34.8 µM (inactive)	> 100 µM (inactive)	32.4 µM (inactive)	31 µM (inactive)	30.9 µM (inactive)	57.9 µM (inactive)	92 µM (inactive)	85.7 µM (inactive)	69.2 µM (inactive)	79.6 µM (inactive)	21.4 µM (inactive)	52.2 µM (inactive)	44.6 µM (inactive)	40.4 µM (inactive)	> 100 µM (inactive)	72.6 µM (inactive)	38.4 µM (inactive)	32.9 µM (inactive)	24.5 µM (inactive)	84.7 µM (inactive)
